For data set [1] the following is noted: 293.15 K; 101.33 kPa; Liquid; Vibrating tube method.
Data set [2] in a line: refractive index (Na D-line) (dimensionless). The note with it: 293.15 K; 101.33 kPa; Liquid; Standard Abbe refractometry.
A short description of data set [3]: Boiling temperature at pressure P. As to conditions: 101.3 kPa; Liquid; Closed cell (Static) method.

The results in this text go back to the NIST ThermoML archive (doi:10.1016/j.fluid.2015.10.035).

Numbers after ± are expanded uncertainties.

Take `CC#N` [acetonitrile]: in data set [1], the mass density (in general, mass per unit of volume) was 782.1 ± 0.4 kg/m3. Moreover, the refractive index (as a rule, a measure of how strongly the sample bends light) in data set [2] is 1.3439 ± 0.0004. Moreover, in data set [3], the “Boiling temperature at pressure P” value came out at 81.44 ± 0.1 °C.

With `CC(C)O` [propan-2-ol], in data set [1], the mass density was determined as 786 ± 0.4 kg/m3. Besides, in data set [2], the refractive index amounted to 1.3773 ± 0.0004. In data set [3], the “Boiling temperature at pressure P” value was found to be 82.34 ± 0.1 °C.
